Measured values from patent publication US20060223849A1, “Benzazole derivatives, compositions, and methods of use as beta-secretase inhibitors” (priority 2005, published 2006).
pEC50: −log10 of the molar value.

test system: HEK293 cells stably expressing wildtype human APP695 protein (HEK-APPwt cells); test: Aβ cell based assay (Aβ1-40 secretion, ELISA); details: 1 hr room temperature then five-hour incubation at 37° C., Aβ1-40 ELISA, DAPT as 100% inhibition reference, read-out: EC50, reduction of Aβ1-40 secretion in the cell based assay
Method: Aβ Cell Based Assay Procedure
In the following assay, the proteolytic activity of BACE in cells exposed to varying concentrations of a compound of interest is measured by observing the amount of Aβ1-40 secreted from HEK293 cells (Human Embryonic Kidney epithelial cell line) stably expressing either wildtype human APP695 protein (HEK-APPwt cells).
HEK-APPwt cells were grown in high glucose DMEM (Dulbecco's Modified Eagles Medium) with 4500 mg glucose/L,L-glutamine, NaHCO3, pyrdoxin HCl, 10 mM HEPES (4-(2-hydroxyethyl)-1-piperazineethanesulfonic acid) (pH 7.4), 0.1 mM NEAA (Non-essential Amino Acids) (GIBCO Cat#11140-050), 10% fetal bovine serum and 250 μg/ml hygromycin in T-225 flasks at 37° C. with CO2 and humidity control.
Test compounds were initially prepared in DMSO and diluted with DMEM media containing 2% FBS (Fetal bovine serum) and 0.05% Tween20. Ten standard compound solutions were prepared having a range of concentrations. The standard compound solutions were used to determine the EC50 of the test compound. The range of concentrations chosen may depend on the compound's predicted potency.
To prepare the cells for the assay, a flask containing HEK-APPwt cells were trypsinized briefly (1 mL trypsin), and once the cells detached, 4 mL of 10% FBS-DMEM was added to the flask. The detached cells were centrifuged at 900 rpm for 5 min to form a pellet.
The HEK-APPwt cell pellet was re-suspended with 10 mL DMEM media containing 2% FBS. 80 μL of the cell suspension was added to each well of a 96-well cell culture plate to give 100,000 cells/well. 10 μL of a standard compound solution was added to each well of the 96-well cell culture plate followed by 10 μL of Alamar blue solution. The cells were incubated at room temperature for 1 hr, followed by a five-hour incubation in the CO2 incubator at 37° C.
At the end of the incubation, the plates were removed from incubator, and the supernatant was collected. Aβ1-40 concentration in the medium was measured by using a commercial Aβ1-40 ELISA kit (IBL, Japan). Briefly, the ELISA plates were coated with anti-human Aβ35-40 mouse IgG monoclonal antibody. A horseradish peroxidase enzyme conjugated anti-human Aβ11-28 mouse IgG monoclone antibody was used for detection. The cell culture supernatant was diluted 1:4 fold with (EIA buffer+Protease inhibitor (buffer containing Protease Inhibitor (1 mL PI/30 mL buffer). A 100 μL aliquot of the diluted supernatant was added to each well of the ELISA plate and incubated for 6 hrs at 4° C. The ELISA plate was washed 8 times with phosphate buffered saline (PBS) containing 0.05% Tween 20.
A 100 μL of detection antibody was then added and incubated for 1 hour at 4° C. The plate was washed 8 times with PBS buffer containing 0.05% Tween 20 followed by addition of 100 μL of the substrate with the chromogen tetramethyl benzidine (TMB). The plate was incubated in the dark at room temperature for about 30 min and a stop solution (1N H2SO4) was added.
The intensity of the color developed was measured at 450 nm. The optical density at 450 nm (OD450) is proportional to the concentration of human Aβ1-40 secreted by the cell. As a reference, N—[N-(3,5-difluorophenacetyl-L-alanyl)]-S-phenylglycine t-butyl ester (DAPT, a γ-secretase inhibitor) was used to indicate 100% inhibition of BACE activity. Thus, the assay measures the ability of a compound of interest to reduce Aβ1-40 secretion. Compound potency was reported as the EC50 by calculating the percent inhibition at all concentration levels and the data were fit with non-linear curve fitting algorithm using in GraphPad Prism.

SMILES | pEC50
O=C(Nc1nc2c(C(=O)Nc3ncc[nH]3)cccc2[nH]1)c1cccc(C#Cc2cccnc2)n1 [Example 434, Ar = 6-(Pyridin-3-ylethynyl)-pyridine-2-yl] | ≥ 5.70
O=C(Nc1nc2c(C(=O)Nc3nc4c(s3)CNCC4)cccc2[nH]1)c1cc2ccccc2cn1 [Example 198, isoquinoline-3-carboxylic acid [7-(4,5,6,7-tetrahydro-thiazolo[5,4-c]pyridin-2-ylcarbamoyl)-1H-benzoimidazol-2-yl]-amide] | ≥ 5.70
COc1cccc2cc(C(=O)Nc3nc4c(C(=O)Nc5ncc[nH]5)cccc4[nH]3)ncc12 [Example 295, 8-methoxy-isoquinoline-3-carboxylic acid [4-(1H-imidazol-2-ylcarbamoyl)-1H-benzoimidazol-2-yl]-amide] | ≥ 5.70
COc1cc2ccnc(C(=O)Nc3nc4c(C(=O)Nc5ncc[nH]5)cccc4[nH]3)c2cc1OC [Example 289, 6,7-dimethoxy-isoquinoline-1-carboxylic acid [4-(1H-imidazol-2-ylcarbamoyl)-1H-benzoimidazol-2-yl]-amide] | ≥ 5.70
CCS(=O)(=O)c1cc(C(=O)Nc2ncc[nH]2)c2[nH]c(NC(=O)c3cc4ccccc4cn3)nc2c1 [Example 491, isoquinoline-3-carboxylic acid [5-ethanesulfonyl-7-(1H-imidazol-2-ylcarbamoyl)-1H-benzoimidazol-2-yl]-amide] | ≥ 5.70
O=C(Nc1nc2c(C(=O)Nc3ncc[nH]3)cccc2[nH]1)c1nccc2ccccc12 [Example 311, Ar = Isoquinoline-1-yl] | ≥ 5.70
COc1ccc2cnc(C(=O)Nc3nc4c(C(=O)Nc5ncc[nH]5)cccc4[nH]3)cc2c1 [Example 294, 6-Methoxy-isoquinoline-3-carboxylic acid [4-(1H-imidazol-2-ylcarbamoyl)-1H-benzoimidazol-2-yl]-amide] | ≥ 5.70
O=C(Nc1nc2c(C(=O)Nc3ncc[nH]3)cccc2[nH]1)c1cncc(C#Cc2ccccc2)c1 [Example 414, 2-[(5-phenylethynyl-pyridine-3-carbonyl)-amino]-1H-benzoimidazole-4-carboxylic acid (1H-imidazol-2-yl)-amide] | ≥ 5.70
COc1ccc2cc(C(=O)Nc3nc4c(C(=O)Nc5ncc[nH]5)cccc4[nH]3)ncc2c1 [Example 296, 7-methoxy-isoquinoline-3-carboxylic acid [4-(1H-imidazol-2-ylcarbamoyl)-1H-benzoimidazol-2-yl]-amide] | ≥ 5.70
Cc1nc(NC(=O)c2cccc3[nH]c(NC(=O)c4cc5ccccc5cn4)nc23)[nH]c1C [Example 193, Isoquinoline-3-carboxylic acid [4-(4,5-dimethyl-1H-imidazol-2-ylcarbamoyl)-1H-benzoimidazol-2-yl]-amide] | ≥ 5.70
N#Cc1cccc(-c2cccc(C(=O)Nc3nc4c(C(=O)Nc5ncc[nH]5)cccc4[nH]3)n2)c1 [Example 343, 2-{[6-(3-cyano-phenyl)-pyridine-2-carbonyl]-amino}-1H-benzoimidazole-4-carboxylic acid (1H-imidazol-2-yl)-amide] | ≥ 5.70
O=C(Nc1nc2c(C(=O)Nc3ncc[nH]3)cccc2[nH]1)c1cc2cc3c(cc2cn1)OCCO3 [Example 318, Ar = 2,3-Dihydro-[1,4]dioxino[2,3-g]isoquinoline-8-yl] | ≥ 5.70
CS(=O)(=O)c1ccc(CNC(=O)c2cc(-c3ccncc3)cc3[nH]c(NC(=O)c4cc5ccccc5cn4)nc23)cc1 [Example 458, isoquinoline-3-carboxylic acid [4-(4-methanesulfonyl-benzylcarbamoyl)-6-pyridin-4-yl-1H-benzoimidazol-2-yl]-amide] | ≥ 5.70
CS(=O)(=O)c1cccc(C#Cc2cccc(C(=O)Nc3nc4c(C(=O)Nc5ncc[nH]5)cccc4[nH]3)n2)c1 [Example 417, 2-{[6-(3-methanesulfonyl-phenylethynyl)-pyridine-2-carbonyl]-amino}-1H-benzoimidazole-4-carboxylic acid (1H-imidazol-2-yl)-amide] | ≥ 5.70
